In patent US8119614B2, “Substitution derivatives of N6-benzyladenosine, methods of their preparation, their use for preparation of drugs, cosmetic preparations and growth regulators, pharmaceutical preparations, cosmetic preparations and growth regulators containing these compounds” (Ustav Experimentalni Botaniky Akademie Ved Ceske Republiky, priority 2002, dated 2012):

Legend:
HOS = assay: In vitro cytotoxic activity, Calcein AM assay, HOS; type: cell-based; conditions: 72 hours
[1] = tested on: human erythroleukaemia K562; assay: In vitro cytotoxic activity, Calcein AM assay, K-562; type: cell-based; conditions: 72 hours, read-out: IC 50 K-562
Procedure, shortened: (§1)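 Cells seeded at 10^4 per well, pre-incubated 24 h at 37 °C/5% CO2, then exposed 72 h to six 4-fold dilutions of compound (top well concentration usually 166.7 μM) in duplicate. Viability read by Calcein AM fluorescence after 1 h; GI50 taken from dose-response curves.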

[2] = tested on: breast carcinoma cell lines MCF-7; assay: In vitro cytotoxic activity, Calcein AM assay, MCF7; type: cell-based, human; conditions: 72 hours, read-out: IC 50 MCF7
Procedure, shortened: as §1

mouse fibroblasts NIH3T3 = assay: In vitro cytotoxic activity, Calcein AM assay, NIH-3T3; type: cell-based; conditions: 72 hours, read-out: IC 50 NIH-3T3
Procedure, shortened: as §1

[3] = tested on: human malignant melanoma cells G361; assay: In vitro cytotoxic activity, Calcein AM assay, G-361; type: cell-based; conditions: 72 hours, read-out: IC 50 G-361
Excerpt: One of the parameters used, as the basis for cytotoxicity assays, is the metabolic activity of viable cells. For example, a microtiter assay, which uses the Calcein AM, is now widely used to quantitate cell proliferation and cytotoxicity. For instance, this assay is used in drug screening programs and in chemosensitivity testing. Because only metabolically active cells cleave Calcein AM, these assays detect viable cells exclusively. The quantity of reduced Calcein AM corresponds to the number of vital cells in the culture.
Human T-lymphoblastic leukemia cell line CEM; promyelocytic HL-60 and monocytic U937 leukemias; breast carcinoma cell lines MCF-7; cervical carcinoma cells HELA; mouse fibroblasts NIH3T3; human erythroleukaemia K562 and human malignant melanoma cells G361 were used for routine screening of compounds. The cells were maintained in Nunc/Corning 80 cm^2 plastic tissue culture flasks and cultured in cell culture medium (DMEM with 5 g/l glucose, 2 mM glutamine, 100 U/ml penicillin, 100 μg/ml streptomycin, 10% fetal calf serum and sodium bicarbonate).
The cell suspensions that were prepared and diluted according to the particular cell type and the expected target cell density (10^4 cells per well based on cell growth characteristics) were added by pipette (80 μl) into 96/well microtiter plates. Inoculates were allowed a pre-incubation period of 24 hours at 37° C. and 5% CO2 for stabilisation. Four-fold dilutions of the intended test concentration were added at time zero in 20 μl aliquots to the microtiter plate wells. Usually, test compound was evaluated at six 4-fold dilutions. In routine testing, the highest well concentration was 166.7 μM, but it can be the matter of change dependent on the agent. All drug concentrations were examined in duplicates. Incubations of cells with the test compounds lasted for 72 hours at 37° C., in 5% CO2 atmosphere and 100% humidity. At the end of incubation period, the cells were assayed by using the Calcein AM. Ten microliters of the stock solution were pipetted into each well and incubated further for 1 hours. Fluorescence (FD) was measured with the Labsystem FIA Reader Fluoroscan Ascent (UK). The tumour cell survival (GI50) was calculated using the following equitation: GI50=(FDdrug exposed well/mean FDcontrol wells)×100%. The GI50 value, the drug concentration lethal to 50% of the tumour cells, was calculated from the obtained dose response curves (FIG. 3).

[4] = tested on: Human T-lymphoblastic leukemia cell line CEM; assay: In vitro cytotoxic activity, Calcein AM assay, CEM; type: cell-based; conditions: 72 hours
Procedure, shortened: as §1

promyelocytic HL-60 = assay: In vitro cytotoxic activity, Calcein AM assay, HL60; type: cell-based, human; conditions: 72 hours, read-out: IC 50 HL60
Procedure, shortened: as §1

Human lymphocytes = assay: Immunosuppressive activity: concanavalin A induced lymphocyte proliferation, [^3H]-TdR incorporation; type: cell-based; conditions: 72 hours, read-out: Human lymphocytes ED50
Experimental: Human heparinized peripheral blood was obtained from healthy volunteers by cubital vein punction. The blood was diluted in PBS (1:3) and mononuclear cells were separated by centrifugation in Ficoll-Hypaque density gradient (Pharmacia, 1.077 g/ml) at 2200 rpm for 30 minutes. Following centrifugation, lymphocytes were washed in PBS and resuspended in cell culture medium (RMPI 1640, 2 mM glutamine, 100 U/ml penicillin, 100 μg/ml streptomycin, 10% fetal calf serum and sodium bicarbonate).
The cells were diluted at target density of 1,100,000 cells/ml were added by pipette (180 μl) into 96/well microtiter plates. Four-fold dilutions of the intended test concentration were added at time zero in 20 μl aliquots to the microtiter plate wells. Usually, test compound was evaluated at six 4-fold dilutions. In routine testing, the highest well concentration was 266.7 μM. All drug concentrations were examined in duplicates. All wells with exception of unstimulated controls were activated with 50 μl of concanavalin A (25 μg/ml). Incubations of cells with test compounds lasted for 72 hours at 37° C., in 5% CO2 atmosphere and 100% humidity. At the end of incubation period, the cells were assayed by using the [^3H]-TdR:
Cell cultures were incubated with 0.5 μCi (20 μl of stock solution 500 μCi/ml) per well for 6 hours at 37° C. and 5% CO2. The automated cell harvester was used to lyse cells in water and adsorb the DNA onto glass-fiber filters in the format of microtiter plate. The DNA incorporated [^3H]-TdR was retained on the filter while unincorporated material passes through. The filters were dried at room temperature overnight, sealed into a sample bag with 10-12 ml of scintillant. The amount of [^3H]-TdR present in each filter (in cpm) was determined by scintillation counting in a Betaplate liquid scintillation counter. The effective dose of immunosuppressant (ED) was calculated using the following equation: ED=(CCPMdrug exposed well/mean CCPMcontrol wells)×100%. The ED50 value, the drug concentration inhibiting proliferation of 50% of lymphocytes, was calculated from the obtained dose response curves.

[5] = tested on: human diploid fibroblasts (HCA cells); assay: Inhibition of senescence of mammal cells: β-galactosidase staining of senescent cells; type: cell-based; conditions: for Senescent cells (%) HCA25: passage 25; for Senescent cells (%) HCA45: passage 45; for Senescent cells (%) HCA80: passage 80
Experimental: In this example, human diploid fibroblasts (HCA cells with different levels of passage: passage 25—labelling HCA25; passage 45—labelling HCA45; passage 80—labelling HCA80) were used for studying β-galactosidase activity. Medium used for cells cultivation was removed, cells were washed twice with PBS and fixed in 2-3 ml of fixation agent consisting of 2% of formaldehyde and 0.2% of flutaraldehyde in PBS. Cells were incubated at room temperature for 5 min and subsequently washed twice with PBS. Cells were then incubated at 37° C. (without CO2) for 1 to 16 hours in 2-3 ml of solution comprising potassium ferricyanide (5 mM), potassium ferrocyanide (5 mM), MgCl2 (2 mM), X-gal (5-bromo-4-chloro-3-indolyl-β-D-galactopyranoside) (1 mg/ml) in citrate/phosphate buffer, pH 6.0. […] In this experiment only senescent cells were labelled due to the effect of β-galactosidase on the substrate.

[6] = tested on: Triticum aestivum cv. Hereward; assay: Senescence inhibition on winter wheat leaf segments (chlorophyll retention); type: in vivo; conditions: for Concentration with highest activity: chlorophyll retention in excised wheat leaf tips, 96 h dark; for Activity (%) [10^−4 mol · l^−1 BAP = 100%]: chlorophyll retention, at concentration with highest activity
Procedure, shortened: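 Tip segments of the first leaf from 7-day wheat seedlings held, basal ends down, in cytokinin solutions (10^−8M to 10^−4M) for 96 h at 25° C in darkness. Chlorophyll extracted in 80% ethanol at 80° C, read at 665 nm; activity at best concentration given relative to 10^−4 M BAP (100%), means of five replicates.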

[7] = tested on: tobacco callus Nicotiana tabacum L. cv. Wisconsin 38; assay: Growth of cytokinin-dependent tobacco callus; type: cell-based; conditions: for Activity (%) [10^−5 mol · l^−1 BAP = 100%]: callus growth, at concentration with highest activity; for Concentration with highest activity: fresh callus weight after four weeks
Experimental: Cytokinin-dependent tobacco callus Nicotiana tabacum L. cv. Wisconsin 38 was maintained at 25° C. in darkness on modified Murashige-Skoog medium, containing per 1 liter: 4 μmol nicotinic acid, 2.4 μmol pyridoxine hydrochloride, 1.2 μmol thiamine, 26.6 μmol glycine, 1.37 μmol glutamine, 1.8 μmol myo-inositol, 30 g of sucrose, 8 g of agar, 5.37 μmol α-naphtylacetic acid (NAA) and 0.5 μmol benzylaminopurine (BAP). Subcultivation was carried out every three weeks. Fourteen days before the bioassay, the callus tissue was transferred to the media without 6-benzylaminopurine (BAP). Biological activity was determined from the increase in fresh callus weight after four weeks of cultivation. Five replicates were prepared for each cytokinin concentration and the entire test was repeated twice. From the obtained data, the concentration with highest activity was selected for each compound tested. Relative activity of the compound at this concentration was calculated (Tab. 6). […] The cytokinins to be tested were dissolved in dimethylsulfoxide (DMSO) and the solution brought up to 10^−3M with distilled water. This stock was further diluted in the respective media used for the biotest to concentrations ranging from 10^−8M to 10^−4M.

[8] = tested on: Amaranthus caudatus cotyledon/hypocotyl explants; assay: Amaranthus bioassay (betacyanin content); type: in vivo; conditions: for Concentration with highest activity: 48 h dark; for Activity (%) [10^−5 mol · l^−1 BAP = 100%]: at concentration with highest activity
Procedure, shortened: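 Surface-sterilised Amaranthus caudatus var. atropurpurea seeds were germinated 72 h at 25° C. in darkness, then de-rooted. Cotyledon/hypocotyl explants (20 per dish) were incubated under green safe light on filter paper with 1 ml medium of 10 μmol NA2HPO4-KH2PO4, pH 6.8, 5 μmol tyrosine and cytokinin (10^-8M to 10^-4M) for 48 h at 25° C. in darkness. Betacyanin was extracted in […] acetic acid and measured by absorbance at 537 nm and 620 nm.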

Row | Compound | IC50 (HOS) | IC50 [1] | IC50 [2] | IC50 (mouse fibroblasts NIH3T3) | IC50 [3] | IC50 [4] | IC50 (promyelocytic HL-60) | EC50 (Human lymphocytes) | Senescent cells (%) HCA25 [5] | Senescent cells (%) HCA45 [5] | Senescent cells (%) HCA80 [5] | Concentration with highest activity [6] | Activity (%) [10^−4 mol · l^−1 BAP = 100%] [6] | Activity (%) [10^−5 mol · l^−1 BAP = 100%] [7] | Concentration with highest activity [7] | Concentration with highest activity [8] | Activity (%) [10^−5 mol · l^−1 BAP = 100%] [8]
1 | OC[C@H]1O[C@@H](n2cnc3c(NCc4cccc(Cl)c4O)ncnc32)[C@H](O)[C@@H]1O [2-hydroxy-3-chlorobenzylamino, 6-(2-hydroxy-3-chlorobenzylamino)purine riboside] | > 167 µM | 10.7 µM | 15 µM | > 167 µM | 128 µM | 0.3 µM | 0.1 µM | 2.1 µM | – | – | – | – | – | – | – | – | –
2 | c1coc(CNc2ncnc3[nH]cnc23)c1 [Kinetin, reference compound] | – | – | – | – | – | – | – | – | 3% | 5% | 25% | – | – | – | – | – | –
3 | COc1ccc(CNc2ncnc3c2ncn3[C@@H]2O[C@H](CO)[C@@H](O)[C@H]2O)cc1 [4-methoxybenzylamino, 6-(4-methoxybenzylamino)purine riboside] | > 167 µM | > 167 µM | > 167 µM | > 167 µM | 115 µM | > 167 µM | > 167 µM | – | – | – | – | 10^−4 mol · l^−1 | 110 ± 9% | 2 ± 2% | 10^−6 mol · l^−1 | 10^−4 mol · l^−1 | 17 ± 8%
4 | OC[C@H]1O[C@@H](n2cnc3c(Nc4cccc(Cl)c4)ncnc32)[C@H](O)[C@@H]1O [3-chloroanilino] | – | – | – | – | – | – | – | – | 4% | 4% | 27% | – | – | – | – | – | –
5 | COc1cccc(CNc2ncnc3c2ncn3[C@@H]2O[C@H](CO)[C@@H](O)[C@H]2O)c1OC [2,3-dimethoxybenzylamino, 6-(2,3-dimethoxybenzylamino)purine riboside] | > 167 µM | > 167 µM | > 167 µM | > 167 µM | – | > 167 µM | 109 µM | – | 4% | 5% | 18% | 10^−4 mol · l^−1 | 106 ± 17% | 5 ± 2% | 10^−6 mol · l^−1 | 10^−4 mol · l^−1 | 21 ± 7%
6 | OC[C@H]1O[C@@H](n2cnc3c(NCc4ccc(O)c(O)c4)ncnc32)[C@H](O)[C@@H]1O [3,4-dihydroxybenzylamino, 6-(3,4-dihydroxybenzylamino)purine riboside] | – | – | – | – | – | – | – | 8.3 µM | – | – | – | – | – | – | – | 10^−4 mol · l^−1 | 8 ± 3%
7 | Nc1cc(CNc2ncnc3c2ncn3[C@@H]2O[C@H](CO)[C@@H](O)[C@H]2O)ccc1Cl [3-amino-4-chlorobenzylamino, 6-(3-amino-4-chlorobenzylamino)purine riboside] | – | – | – | – | – | – | – | – | 4% | 6% | 22% | – | – | – | – | – | –
8 | COc1ccc(CNc2ncnc3c2ncn3[C@@H]2O[C@H](CO)[C@@H](O)[C@H]2O)c(O)c1 [2-hydroxy-4-methoxybenzylamino, 6-(2-hydroxy-4-methoxybenzylamino)purine riboside] | – | – | – | – | – | – | – | 1.5 µM | – | – | – | – | – | – | – | – | –
9 | OC[C@H]1O[C@@H](n2cnc3c(NCc4cccc(O)c4)nc(Cl)nc32)[C@H](O)[C@@H]1O [R2 = Cl, 3-hydroxybenzylamino] | > 167 µM | > 167 µM | > 167 µM | > 167 µM | > 167 µM | 47.8 µM | 15.9 µM | – | – | – | – | – | – | – | – | – | –
